Earlier results as cited in US20250215044A1, “Compounds and Methods for Inhibiting LPA” (Ionis Pharmaceuticals, Inc., priority 2023, published 2025).

Tested on: plasma Lp(a)
Design: concentration or dose not given beside the values
Conditions: clinical setting

Row | Compound | reduction of plasma Lp(a) levels
1 | COc1cc(F)c(C(C)C)cc1-c1ccc(C(F)(F)F)cc1CN1C(=O)O[C@H](c2cc(C(F)(F)F)cc(C(F)(F)F)c2)[C@@H]1C [Anacetrapib] | 36%
2 | CC(C)c1cc(Oc2c(Br)cc(NC(=O)CC(=O)O)cc2Br)ccc1O [Epirotirome] | 43%
3 | O=C(NC1CCN(CCCCC2(C(=O)NCC(F)(F)F)c3ccccc3-c3ccccc32)CC1)c1ccccc1-c1ccc(C(F)(F)F)cc1 [Lomitapide] | 17%
4 | O=C(O)c1cccnc1 [Niaspan] | 39%
5 | CC(=O)Oc1ccccc1C(=O)O [aspirin] | 18%
6 | Mipomersen | 32%
